Columns and labels:
[1] = molecular target: Cytochrome P450 3A4 (Homo sapiens, UniProt P08684)
Description: Inhibition of CYP3A4 in human liver microsomes assessed as reduction in 1-Hydroxymidazolam formation using midazolam as substrate after 10 to 20 mins in presence of NADPH by LC-MS/MS analysis

[2] = in vivo; settings: ICR, mouse, plasma, iv, 3 mg/kg
Description: Volume of distribution at steady state in ICR mouse plasma at 3 mg/kg, iv by LC/MS/MS analysis

[3] = test system: HGC-27; test: cells; type: functional, cell-based; settings: Homo sapiens, HGC-27, 96 h
Description: Cytotoxicity against human HGC27 cells after 96 hrs by MTT assay

[4] = test system: PC-3; test: cells; type: functional, cell-based; settings: Homo sapiens, PC-3, 96 h
Description: Cytotoxicity against human PC3 cells after 96 hrs by MTT assay

[5] = in vivo; settings: ICR, mouse, plasma, po, 30 mg/kg
[6] = in vivo; settings: ICR, mouse, plasma, iv, 3 mg/kg; remark: listed apart in the source
[7] = in vivo; settings: ICR, mouse, plasma, iv, 3 mg/kg; remark: listed apart in the source
Description: Clearance in ICR mouse plasma at 3 mg/kg, iv by LC/MS/MS analysis

[8] = molecular target: Voltage-gated inwardly rectifying potassium channel KCNH2 (Homo sapiens, UniProt Q12809)
Description: Inhibition of human ERG expressed in CHO cell membranes by patch clamp method

[9] = molecular target: Phosphatidylinositol 4,5-bisphosphate 3-kinase catalytic subunit beta isoform (Homo sapiens, UniProt P42338); test: Inhibition of PI3Kbeta (unknown origin) using PIP2 as substrate by ADP-Glo assay
[10] = test system: U-251; test: cells; type: functional, cell-based; settings: Homo sapiens, U-251, 96 h
Description: Cytotoxicity against human U251 cells after 96 hrs by MTT assay

[11] = in vivo; settings: ICR, mouse, plasma, po, 30 mg/kg; remark: listed apart in the source
[12] = molecular target: Cytochrome P450 2C19 (Homo sapiens, UniProt P33261)
Cytochrome P450 2C19, sequence (P33261 whole entry): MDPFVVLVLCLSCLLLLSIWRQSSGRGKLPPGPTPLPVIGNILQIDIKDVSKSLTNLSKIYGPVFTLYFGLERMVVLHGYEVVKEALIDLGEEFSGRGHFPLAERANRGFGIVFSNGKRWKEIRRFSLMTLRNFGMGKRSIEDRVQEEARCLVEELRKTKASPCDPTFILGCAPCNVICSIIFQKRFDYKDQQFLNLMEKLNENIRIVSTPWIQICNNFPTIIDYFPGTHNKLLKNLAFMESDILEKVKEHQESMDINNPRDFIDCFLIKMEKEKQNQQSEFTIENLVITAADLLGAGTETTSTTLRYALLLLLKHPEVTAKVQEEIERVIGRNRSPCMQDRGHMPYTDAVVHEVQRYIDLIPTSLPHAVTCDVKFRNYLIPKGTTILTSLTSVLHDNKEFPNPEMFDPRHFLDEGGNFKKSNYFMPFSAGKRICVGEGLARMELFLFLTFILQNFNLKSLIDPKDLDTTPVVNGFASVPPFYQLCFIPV
Description: Inhibition of CYP2C19 in human liver microsomes assessed as reduction in 4-Hydroxymephenytoinn formation using mephenytoin as substrate after 10 to 20 mins in presence of NADPH by LC-MS/MS analysis

[13] = test system: DU-145; test: cells; type: functional, cell-based; settings: Homo sapiens, DU-145, 96 h
Description: Cytotoxicity against human DU145 cells after 96 hrs by MTT assay

[14] = test system: A549; test: cells; type: functional, cell-based; settings: Homo sapiens, A549, 96 h
Description: Cytotoxicity against human A549 cells after 96 hrs by MTT assay

[15] = molecular target: Phosphatidylinositol 4,5-bisphosphate 3-kinase catalytic subunit alpha isoform (Homo sapiens, UniProt P42336); test: Inhibition of PI3Kalpha (unknown origin) using PIP2 as substrate by Kinase-Glo assay
Phosphatidylinositol 4,5-bisphosphate 3-kinase catalytic subunit alpha isoform, sequence (P42336 whole entry, canonical isoform): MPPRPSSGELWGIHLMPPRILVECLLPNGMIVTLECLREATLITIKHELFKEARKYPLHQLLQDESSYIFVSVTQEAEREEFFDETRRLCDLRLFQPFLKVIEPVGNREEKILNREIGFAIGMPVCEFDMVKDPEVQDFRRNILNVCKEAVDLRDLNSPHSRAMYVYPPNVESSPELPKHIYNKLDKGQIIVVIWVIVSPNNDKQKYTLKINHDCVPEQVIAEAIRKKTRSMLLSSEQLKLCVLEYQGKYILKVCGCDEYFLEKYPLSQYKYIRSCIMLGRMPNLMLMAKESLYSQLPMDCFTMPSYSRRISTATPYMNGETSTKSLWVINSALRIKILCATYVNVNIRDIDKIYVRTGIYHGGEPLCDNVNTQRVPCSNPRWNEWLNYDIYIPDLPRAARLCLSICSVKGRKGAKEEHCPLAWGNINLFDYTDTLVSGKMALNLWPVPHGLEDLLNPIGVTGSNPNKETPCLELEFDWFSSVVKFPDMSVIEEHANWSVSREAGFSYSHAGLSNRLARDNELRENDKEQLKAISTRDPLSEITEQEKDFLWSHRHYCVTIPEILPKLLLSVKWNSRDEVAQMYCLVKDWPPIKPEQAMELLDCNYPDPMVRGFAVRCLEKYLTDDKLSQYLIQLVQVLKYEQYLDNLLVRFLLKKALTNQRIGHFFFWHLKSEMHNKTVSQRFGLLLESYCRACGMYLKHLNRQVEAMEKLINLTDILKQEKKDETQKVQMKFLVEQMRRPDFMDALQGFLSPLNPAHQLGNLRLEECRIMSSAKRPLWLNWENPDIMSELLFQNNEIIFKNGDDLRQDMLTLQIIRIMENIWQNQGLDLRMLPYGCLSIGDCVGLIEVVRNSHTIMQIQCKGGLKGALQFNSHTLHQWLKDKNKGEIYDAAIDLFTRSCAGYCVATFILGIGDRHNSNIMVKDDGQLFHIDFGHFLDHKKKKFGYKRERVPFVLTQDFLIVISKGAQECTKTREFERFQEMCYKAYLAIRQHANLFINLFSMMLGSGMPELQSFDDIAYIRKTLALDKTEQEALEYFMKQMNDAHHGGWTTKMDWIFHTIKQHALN

[16] = molecular target: Cytochrome P450 2C9 (Homo sapiens, UniProt P11712)
Description: Inhibition of CYP2C9 in human liver microsomes assessed as reduction in 4-Hydroxydiclofenac formation using diclofenac as substrate after 10 to 20 mins in presence of NADPH by LC-MS/MS analysis

[17] = in vivo; settings: ICR, mouse, plasma, po, 30 mg/kg; remark: listed apart in the source
[18] = in vivo; settings: ICR, mouse, plasma, po, 30 mg/kg; remark: listed apart in the source
Description: Half life in ICR mouse plasma at 30 mg/kg, po by LC/MS/MS analysis

[19] = in vivo; settings: ICR, mouse, plasma, iv, 3 mg/kg; remark: listed apart in the source
[20] = in vivo; settings: ICR, mouse, plasma, po, 30 mg/kg; remark: listed apart in the source
[21] = molecular target: T1, Phosphatidylinositol 4,5-bisphosphate 3-kinase catalytic subunit delta isoform (Homo sapiens, UniProt O00329); test: Inhibition of PI3Kdelta (unknown origin) using PIP2 as substrate by ADP-Glo assay
T1 sequence (O00329 whole entry): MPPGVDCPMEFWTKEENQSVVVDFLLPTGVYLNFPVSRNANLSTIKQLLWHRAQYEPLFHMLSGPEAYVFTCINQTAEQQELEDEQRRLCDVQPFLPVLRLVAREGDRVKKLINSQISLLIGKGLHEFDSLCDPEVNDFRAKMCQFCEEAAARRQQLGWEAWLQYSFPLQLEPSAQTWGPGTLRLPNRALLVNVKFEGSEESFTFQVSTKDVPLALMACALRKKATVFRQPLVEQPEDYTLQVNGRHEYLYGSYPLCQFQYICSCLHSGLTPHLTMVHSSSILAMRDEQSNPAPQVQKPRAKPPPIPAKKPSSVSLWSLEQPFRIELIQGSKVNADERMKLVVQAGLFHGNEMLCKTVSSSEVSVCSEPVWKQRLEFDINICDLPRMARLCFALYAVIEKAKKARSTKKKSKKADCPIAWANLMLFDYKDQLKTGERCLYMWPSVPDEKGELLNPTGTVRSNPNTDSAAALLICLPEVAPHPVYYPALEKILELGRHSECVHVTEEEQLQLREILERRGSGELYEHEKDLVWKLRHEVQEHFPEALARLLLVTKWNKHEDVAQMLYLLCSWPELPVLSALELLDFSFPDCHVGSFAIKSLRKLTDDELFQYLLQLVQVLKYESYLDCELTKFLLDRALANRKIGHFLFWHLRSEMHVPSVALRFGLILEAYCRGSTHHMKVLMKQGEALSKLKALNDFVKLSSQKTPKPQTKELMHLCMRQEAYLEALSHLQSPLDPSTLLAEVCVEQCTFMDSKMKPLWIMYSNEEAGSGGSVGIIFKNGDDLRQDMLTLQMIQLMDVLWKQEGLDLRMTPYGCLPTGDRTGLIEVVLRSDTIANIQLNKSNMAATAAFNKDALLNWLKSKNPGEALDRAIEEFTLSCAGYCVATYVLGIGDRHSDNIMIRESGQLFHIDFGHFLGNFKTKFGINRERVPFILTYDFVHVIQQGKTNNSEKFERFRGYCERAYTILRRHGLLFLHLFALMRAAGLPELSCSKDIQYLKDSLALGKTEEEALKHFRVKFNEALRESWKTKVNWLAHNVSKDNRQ

[22] = molecular target: Phosphatidylinositol 4,5-bisphosphate 3-kinase catalytic subunit gamma isoform (Homo sapiens, UniProt P48736); test: Inhibition of PI3Kgamma (unknown origin) using PIP2 as substrate by ADP-Glo assay
Phosphatidylinositol 4,5-bisphosphate 3-kinase catalytic subunit gamma isoform, sequence (P48736 whole entry, canonical isoform): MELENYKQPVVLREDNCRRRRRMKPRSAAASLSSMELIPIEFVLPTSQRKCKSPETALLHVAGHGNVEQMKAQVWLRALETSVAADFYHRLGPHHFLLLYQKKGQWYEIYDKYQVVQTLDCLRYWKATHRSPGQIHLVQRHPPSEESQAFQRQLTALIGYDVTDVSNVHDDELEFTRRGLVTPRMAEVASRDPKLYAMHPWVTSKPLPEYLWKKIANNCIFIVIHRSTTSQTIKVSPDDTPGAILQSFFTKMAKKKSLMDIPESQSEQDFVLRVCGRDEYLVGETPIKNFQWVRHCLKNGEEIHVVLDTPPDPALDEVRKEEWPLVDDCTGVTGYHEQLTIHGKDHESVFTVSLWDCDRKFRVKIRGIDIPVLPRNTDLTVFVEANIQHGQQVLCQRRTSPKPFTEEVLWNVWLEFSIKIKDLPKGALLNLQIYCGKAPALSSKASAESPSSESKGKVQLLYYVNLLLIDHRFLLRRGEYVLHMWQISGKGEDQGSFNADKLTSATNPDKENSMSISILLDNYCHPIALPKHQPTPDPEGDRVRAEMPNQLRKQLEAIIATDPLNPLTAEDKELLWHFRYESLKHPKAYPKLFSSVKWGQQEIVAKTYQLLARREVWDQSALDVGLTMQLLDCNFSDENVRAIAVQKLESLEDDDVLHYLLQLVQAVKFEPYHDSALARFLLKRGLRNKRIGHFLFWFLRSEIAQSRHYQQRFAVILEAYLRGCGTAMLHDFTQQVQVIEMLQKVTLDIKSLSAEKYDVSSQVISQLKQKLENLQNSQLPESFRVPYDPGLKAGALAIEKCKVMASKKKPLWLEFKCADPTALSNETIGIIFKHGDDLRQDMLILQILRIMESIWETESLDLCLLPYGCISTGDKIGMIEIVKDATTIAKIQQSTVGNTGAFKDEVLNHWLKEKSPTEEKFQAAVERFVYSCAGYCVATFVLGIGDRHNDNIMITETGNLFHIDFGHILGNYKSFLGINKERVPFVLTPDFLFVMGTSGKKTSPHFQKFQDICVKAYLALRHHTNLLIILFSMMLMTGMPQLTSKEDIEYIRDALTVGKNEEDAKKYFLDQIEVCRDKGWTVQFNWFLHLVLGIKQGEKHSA

[23] = in vivo; settings: ICR, mouse, plasma, iv, 3 mg/kg; remark: listed apart in the source
Description: Half life in ICR mouse plasma at 3 mg/kg, iv by LC/MS/MS analysis

[24] = in vivo; settings: ICR, mouse, plasma, po, 30 mg/kg; remark: listed apart in the source
[25] = test system: T98G; test: cells; type: functional, cell-based; settings: Homo sapiens, 96 h
Description: Cytotoxicity against human T98G cells after 96 hrs by MTT assay

[26] = molecular target: RAC-alpha serine/threonine-protein kinase (Homo sapiens, UniProt P31749); test: Inhibition of AKT1 (unknown origin) using FAM-labeled peptide as substrate by mobility shift assay
RAC-alpha serine/threonine-protein kinase, sequence (P31749 whole entry): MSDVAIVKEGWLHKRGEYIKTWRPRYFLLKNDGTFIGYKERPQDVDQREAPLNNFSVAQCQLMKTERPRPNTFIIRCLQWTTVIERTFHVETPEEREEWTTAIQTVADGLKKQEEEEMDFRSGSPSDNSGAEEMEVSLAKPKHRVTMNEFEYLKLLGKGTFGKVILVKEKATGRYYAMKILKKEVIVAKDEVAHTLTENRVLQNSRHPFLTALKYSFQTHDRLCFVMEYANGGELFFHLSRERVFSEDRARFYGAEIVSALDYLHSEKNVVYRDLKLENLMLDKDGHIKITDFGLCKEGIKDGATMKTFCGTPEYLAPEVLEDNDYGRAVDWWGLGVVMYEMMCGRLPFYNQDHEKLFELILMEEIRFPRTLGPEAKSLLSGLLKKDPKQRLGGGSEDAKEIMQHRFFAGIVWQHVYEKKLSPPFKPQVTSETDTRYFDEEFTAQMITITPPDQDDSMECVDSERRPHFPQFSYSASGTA

[27] = test system: U-87 MG; test: cells; type: functional, cell-based, U-87MG ATCC; settings: Homo sapiens, 96 h
Description: Cytotoxicity against human U87MG cells after 96 hrs by MTT assay

[28] = test system: SH-SY5Y; test: cells; type: functional, cell-based; settings: Homo sapiens, 96 h
Description: Cytotoxicity against human SH-SY5Y cells after 96 hrs by MTT assay

[29] = molecular target: Serine/threonine-protein kinase mTOR (Homo sapiens, UniProt P42345); test: Inhibition of mTOR (unknown origin) using ULight-4E-BP1 peptide as substrate after 30 mins by Lance Ultra assay
[30] = in vivo; settings: ICR, mouse, plasma, iv, 3 mg/kg; remark: listed apart in the source
[31] = molecular target: Cytochrome P450 2E1 (Homo sapiens, UniProt P05181)
Cytochrome P450 2E1, sequence (P05181 whole entry): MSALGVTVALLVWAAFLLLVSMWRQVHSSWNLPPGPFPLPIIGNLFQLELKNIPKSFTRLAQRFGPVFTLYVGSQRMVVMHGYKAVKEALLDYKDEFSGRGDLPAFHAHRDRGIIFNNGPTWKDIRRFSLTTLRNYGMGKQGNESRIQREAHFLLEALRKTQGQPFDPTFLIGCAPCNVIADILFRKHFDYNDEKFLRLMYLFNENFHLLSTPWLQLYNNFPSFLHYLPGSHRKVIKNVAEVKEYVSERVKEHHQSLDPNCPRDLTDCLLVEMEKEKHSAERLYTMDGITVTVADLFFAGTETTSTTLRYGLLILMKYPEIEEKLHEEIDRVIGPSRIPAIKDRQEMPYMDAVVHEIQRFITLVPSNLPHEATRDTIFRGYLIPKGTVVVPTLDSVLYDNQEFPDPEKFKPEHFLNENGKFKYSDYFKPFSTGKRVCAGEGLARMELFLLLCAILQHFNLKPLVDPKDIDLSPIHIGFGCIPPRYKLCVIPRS
Description: Inhibition of CYP2E1 in human liver microsomes assessed as reduction in 6-Hydroxychlorzoxazone formation using chlorzoxazone as substrate after 10 to 20 mins in presence of NADPH by LC-MS/MS analysis

[32] = molecular target: Cytochrome P450 2D6 (Homo sapiens, UniProt P10635)
Cytochrome P450 2D6, sequence (P10635 whole entry): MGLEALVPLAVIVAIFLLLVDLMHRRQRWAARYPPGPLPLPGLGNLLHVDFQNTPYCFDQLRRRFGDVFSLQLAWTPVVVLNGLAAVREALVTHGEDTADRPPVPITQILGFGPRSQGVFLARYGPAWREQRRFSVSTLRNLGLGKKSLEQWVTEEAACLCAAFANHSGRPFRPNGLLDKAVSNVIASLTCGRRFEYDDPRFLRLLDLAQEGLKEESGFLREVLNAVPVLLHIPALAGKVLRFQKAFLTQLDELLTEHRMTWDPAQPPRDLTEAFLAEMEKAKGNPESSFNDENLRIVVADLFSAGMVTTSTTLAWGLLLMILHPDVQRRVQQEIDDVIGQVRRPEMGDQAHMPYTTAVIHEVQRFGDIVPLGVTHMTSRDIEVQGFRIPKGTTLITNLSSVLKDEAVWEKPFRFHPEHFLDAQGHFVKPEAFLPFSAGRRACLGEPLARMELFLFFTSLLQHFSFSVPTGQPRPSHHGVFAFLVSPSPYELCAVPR
Description: Inhibition of CYP2D6 in human liver microsomes assessed as reduction in dextrophan formation using detromethorphann as substrate after 10 to 20 mins in presence of NADPH by LC-MS/MS analysis

[33] = in vivo; settings: ICR, mouse, plasma, iv, 3 mg/kg; remark: listed apart in the source

Cytochrome P450 3A4, sequence (P08684 whole entry): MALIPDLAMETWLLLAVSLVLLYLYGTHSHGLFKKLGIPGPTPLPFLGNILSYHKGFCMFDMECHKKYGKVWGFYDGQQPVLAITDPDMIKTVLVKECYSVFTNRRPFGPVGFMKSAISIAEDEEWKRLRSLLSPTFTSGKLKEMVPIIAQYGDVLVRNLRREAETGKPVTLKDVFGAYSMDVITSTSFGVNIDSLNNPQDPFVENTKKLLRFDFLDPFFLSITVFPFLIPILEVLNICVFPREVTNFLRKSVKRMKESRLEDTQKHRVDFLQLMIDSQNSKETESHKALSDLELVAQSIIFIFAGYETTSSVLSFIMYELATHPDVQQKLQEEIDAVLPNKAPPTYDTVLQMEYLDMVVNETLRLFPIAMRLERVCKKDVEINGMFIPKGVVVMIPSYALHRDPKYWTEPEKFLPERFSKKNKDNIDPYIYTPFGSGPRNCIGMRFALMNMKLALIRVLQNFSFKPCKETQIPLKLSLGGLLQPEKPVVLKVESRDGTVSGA

| Compound | IC50 [1] [nM] | Vd [2] [L/kg] | IC50 [3] [nM] | IC50 [4] [nM] | AUC(0-inf) [5] [ng·h/mL] | Tmax [6] [min] | clearance [7] [mL/min/kg] | IC50 [8] [nM] | IC50 [9] [nM] | IC50 [10] [nM] | AUC(0-t) [11] [ng·h/mL] | IC50 [12] [nM] | IC50 [13] [nM] | IC50 [14] [nM] | IC50 [15] [nM] | IC50 [16] [nM] | bioavailability [17] [%] | half-life [18] [min] | AUC(0-inf) [19] [ng·h/mL] | Cmax [20] [ng/mL] | further results |
| --- | --- | --- | --- | --- | --- | --- | --- | --- | --- | --- | --- | --- | --- | --- | --- | --- | --- | --- | --- | --- | --- |
| CNc1nc(C)c2cc(-c3cnc(OC)c(NS(=O)(=O)c4ccc(F)cc4F)c3)cc(OC3CCOCC3)c2n1 | > 10000 | 0.763 | 16 | 380 | 16100 | 3 | 14.3 | > 10000 | 1.2 | 700 | 15500 | > 10000 | 5200 | 110 | 1.4 | > 10000 | 44.4 | 255 | 3500 | 12800 | IC50 [21]: 0.35 nM; IC50 [22]: 1.7 nM; half-life [23]: 37.2 min; Tmax [24]: 10.8 min; IC50 [25]: 390 nM; IC50 [26]: > 10000 nM; IC50 [27]: 250 nM; IC50 [28]: 510 nM; IC50 [29]: 43 nM; Cmax [30]: 7720 ng/mL; IC50 [31]: > 10000 nM; IC50 [32]: > 10000 nM; AUC(0-t) [33]: 3480 ng·h/mL |
| COc1ncc(-c2cc(O[C@@H]3CCOC3)c3nc(N)nc(C)c3c2)cc1NS(=O)(=O)c1ccc(F)cc1F | > 10000 | 2.57 | 56 | 280 | 9040 | 1.8 | 54.9 | > 10000 | 0.4 | 140 | 8690 | > 10000 | 2100 | 84 | 1 | > 10000 | 96.2 | 281 | 911 | 8830 | IC50 [21]: 0.23 nM; IC50 [22]: 1.2 nM; half-life [23]: 32.4 min; Tmax [24]: 4.8 min; IC50 [25]: 280 nM; IC50 [26]: > 10000 nM; IC50 [27]: 260 nM; IC50 [28]: 950 nM; IC50 [29]: 9.9 nM; Cmax [30]: 1580 ng/mL; IC50 [31]: > 10000 nM; IC50 [32]: > 10000 nM; AUC(0-t) [33]: 904 ng·h/mL |
| CNc1nc(C)c2cc(-c3cnc(OC)c(NS(=O)(=O)c4ccc(F)cc4F)c3)cc(O[C@@H]3CCOC3)c2n1 | > 10000 | 1.56 | 27 | 240 | 17100 | 1.8 | 34.5 | > 10000 | 1.1 | 460 | 11400 | > 10000 | 6500 | 120 | 0.96 | > 10000 | 78.4 | 972 | 1460 | 5390 | IC50 [21]: 0.37 nM; IC50 [22]: 0.93 nM; half-life [23]: 31.8 min; Tmax [24]: 15 min; IC50 [25]: 410 nM; IC50 [26]: > 10000 nM; IC50 [27]: 400 nM; IC50 [28]: 1300 nM; IC50 [29]: 56 nM; Cmax [30]: 2620 ng/mL; IC50 [31]: > 10000 nM; IC50 [32]: > 10000 nM; AUC(0-t) [33]: 1450 ng·h/mL |

— ChEMBL document CHEMBL4145625 (J Med Chem, 2018)
